Data published in patent publication US20070299092A1 (Wyeth, priority 2004, published 2007).
Values joined by “and” are separate entries in the source; they are usually repeats but may differ in a detail not shown here. Equal values may be shown once. Read-outs that look alike come from different tables or passages of the source.

What was measured:
KDR [1] = target: T1, KDR (Homo sapiens, UniProt P35968); assay: cell-based; conditions: for inhibition at 1 µM: read-out: % Inhibition of KDR kinase autophosphorylation in KDR15 cells, compound conc. 1000 nM
[2] = target: T2, human KDR (VEGF-receptor-2) (Homo sapiens, UniProt P35968); assay: KDR kinase enzyme assay (DELFIA, KDR-IC-Flag, poly(Glu4-Tyr) peptide); type: biochemical; conditions: for inhibition at 0.1 µM / inhibition at 1 µM: read-out: % Inhibition
T2 construct: beginning at Met-806; (5′-ATG GAT CCA GAT GM CTC CCA TTG) and ending at Val-1356; made in house

KDR [3] = target: T1, KDR; conditions: compound conc. 1000 nM
[4] = target: T2, human KDR (VEGF-receptor-2); assay: KDR kinase enzyme assay wash-out experiments (irreversible inhibition); type: biochemical
Procedure: To determine if compounds bound irreversibly to enzyme, plates were washed after the enzyme plus compound pre-incubation step and prior to the addition of ATP. Parallel plates were tested wherein one plate was processed exactly as above while a second plate was washed three times in 100 μl of 4 mM HEPES, pH 7.4, to remove unbound compound. 1× Kinase buffer (30 μl of 1 mM MnCl2, 4 mM HEPES, pH 7.4, 20 μM Na3VO4) and 20 μl of ATP/MgCl2 were added to the wash-out plate. Detection of phosphotyrosinylated peptide for both plates was performed as described above.
For each inhibitor shown in Table 2, two IC50 determinations are shown, one under normal conditions and the other where an intermediate wash-out step is carried out. […] If there was a large increase in the IC50 value in the wash-out experiment compared to the experiment where there was no wash-out, then it was determined that the compound was behaving as a conventional reversible binding inhibitor.

[5] = tested on: Human umbilical vein endothelial cells (HUVEC); assay: HUVEC proliferation assay, VEGF-dependent growth ([3H]-thymidine incorporation); type: cell-based; conditions: Homo sapiens, HUVEC; for inhibition at 0.1 µM: conc. 100 nM; for inhibition at 1 µM: conc. 1000 nM; for inhibition at 10 µM: conc. 10000 nM
Summary of the method: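 HUVEC seeded 4000 cells/well, attached overnight, then given compound in serum/VEGF-free EBM plus 50 ng/ml VEGF (final); parallel plates used EGM2 with 2% serum lacking VEGF. Incubation 4-5 days at 37° C. DNA synthesis measured by 5 h [3H]-thymidine (1 μCi/well) incorporation, scintillation-counted.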

[6] = Concentration 100 nM, ATP conc. 10 μM
[7] = Concentration 1000 nM, ATP conc. 10 μM
[8] = Concentration 1000 nM, ATP conc. 1000 μM

T2 sequence (P35968 806-1356): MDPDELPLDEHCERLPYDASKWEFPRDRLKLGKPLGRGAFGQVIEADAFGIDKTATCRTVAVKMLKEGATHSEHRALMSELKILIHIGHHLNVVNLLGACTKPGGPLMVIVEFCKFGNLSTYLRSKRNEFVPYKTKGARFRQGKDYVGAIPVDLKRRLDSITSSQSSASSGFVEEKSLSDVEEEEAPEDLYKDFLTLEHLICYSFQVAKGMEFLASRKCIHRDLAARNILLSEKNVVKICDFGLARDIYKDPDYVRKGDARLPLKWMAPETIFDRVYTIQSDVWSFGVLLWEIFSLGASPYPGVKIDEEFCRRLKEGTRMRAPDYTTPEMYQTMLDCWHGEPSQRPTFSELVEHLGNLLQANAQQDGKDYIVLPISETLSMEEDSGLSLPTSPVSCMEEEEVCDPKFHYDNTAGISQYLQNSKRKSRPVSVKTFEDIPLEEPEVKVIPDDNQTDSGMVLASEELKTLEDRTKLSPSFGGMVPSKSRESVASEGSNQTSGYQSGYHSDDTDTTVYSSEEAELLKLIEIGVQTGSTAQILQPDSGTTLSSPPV
T1 sequence (P35968 20-1356): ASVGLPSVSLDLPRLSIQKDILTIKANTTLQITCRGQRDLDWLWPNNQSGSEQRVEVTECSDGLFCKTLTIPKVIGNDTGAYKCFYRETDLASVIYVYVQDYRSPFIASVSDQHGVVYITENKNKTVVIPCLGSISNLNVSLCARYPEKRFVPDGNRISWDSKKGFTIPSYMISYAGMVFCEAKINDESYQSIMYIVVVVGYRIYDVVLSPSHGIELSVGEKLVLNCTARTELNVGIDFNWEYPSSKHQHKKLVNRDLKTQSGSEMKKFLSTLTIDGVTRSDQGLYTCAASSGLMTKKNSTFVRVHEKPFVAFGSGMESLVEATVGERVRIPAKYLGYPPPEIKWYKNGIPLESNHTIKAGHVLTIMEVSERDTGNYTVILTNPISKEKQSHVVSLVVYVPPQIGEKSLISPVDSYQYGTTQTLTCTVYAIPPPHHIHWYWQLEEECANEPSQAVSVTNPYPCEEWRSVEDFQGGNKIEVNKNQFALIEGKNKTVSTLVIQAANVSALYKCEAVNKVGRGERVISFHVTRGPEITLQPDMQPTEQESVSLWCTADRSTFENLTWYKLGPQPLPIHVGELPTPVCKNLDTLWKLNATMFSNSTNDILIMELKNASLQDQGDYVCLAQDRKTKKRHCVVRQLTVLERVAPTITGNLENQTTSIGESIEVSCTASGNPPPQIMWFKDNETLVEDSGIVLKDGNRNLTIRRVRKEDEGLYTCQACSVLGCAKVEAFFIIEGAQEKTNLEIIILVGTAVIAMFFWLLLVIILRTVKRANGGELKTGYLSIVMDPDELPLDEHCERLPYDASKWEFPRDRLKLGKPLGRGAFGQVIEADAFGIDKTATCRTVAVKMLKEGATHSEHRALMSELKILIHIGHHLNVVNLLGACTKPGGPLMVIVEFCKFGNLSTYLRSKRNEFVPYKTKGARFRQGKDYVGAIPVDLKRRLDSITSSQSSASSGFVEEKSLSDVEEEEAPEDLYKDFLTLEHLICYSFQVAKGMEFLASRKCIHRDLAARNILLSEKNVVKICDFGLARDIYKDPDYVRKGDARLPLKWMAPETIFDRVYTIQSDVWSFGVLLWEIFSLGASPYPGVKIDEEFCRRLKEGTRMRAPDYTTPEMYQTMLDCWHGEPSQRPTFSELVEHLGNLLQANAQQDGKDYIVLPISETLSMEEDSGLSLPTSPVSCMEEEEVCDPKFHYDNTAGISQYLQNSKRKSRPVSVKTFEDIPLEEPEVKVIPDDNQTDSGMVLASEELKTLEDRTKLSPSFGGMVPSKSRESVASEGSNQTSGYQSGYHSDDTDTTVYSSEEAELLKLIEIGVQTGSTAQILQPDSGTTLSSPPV

With `COc1cc2ncnc(NC3=CC(=O)C(Cl)=CC3=O)c2cc1OC` [Example 2, 2-chloro-5-[(6,7-dimethoxy-4-quinazolinyl)amino]benzo-1,4-quinone] the inhibition at 1 µM (KDR [1]) was 18%, the IC50 ([2]; ATP conc. 10 μM) was 5.1 nM and the inhibition at 0.1 µM [2, 6] was 83%. For the same compound, the inhibition at 1 µM [2, 7] was 96%, the inhibition at 1 µM [2, 8] was 98% and the “% Inhibition of KDR kinase autophosphorylation in KDR15 cells” value (“% Inhibition … in KDR15 cells” below) (KDR [3]) was 12%.

`COc1cc2ncnc(NC3=CC(=O)C(C(C)C)=CC3=O)c2cc1OC` [Example 9, 2-[(6,7-dimethoxy-4-quinazolinyl)amino]-5-isopropylbenzo-1,4-quinone] gave an inhibition at 0.1 µM [2, 6] of 24%, an inhibition at 1 µM [2, 7] of 58% and an inhibition at 1 µM [2, 8] of 33%. For the same compound, the “% Inhibition … in KDR15 cells” value (KDR [3]) was 55% and 94%.

With `COCCOc1cc2ncnc(NC3=CC(=O)C(Oc4ccc(S(N)(=O)=O)cc4)=CC3=O)c2cc1OC` [Example 38, 4-[(4-{[6-methoxy-7-(2-methoxyethoxy)quinazolin-4-yl]amino}-3,6-dioxocyclohexa-1,4-dien-1-yl)oxy] benzenesulfonamide] the “% Inhibition” value [2, 6] was 93%, the “% Inhibition” value [2, 7] was 95% and the “% Inhibition … in KDR15 cells” value (KDR [3]) was 97%.

Work on `COc1cc2ncnc(NC3=CC(=O)C(Nc4ccccc4)=CC3=O)c2cc1OC` [Example 86, 2-anilino-5-[(6,7-dimethoxyquinazolin-4-yl)amino]benzo-1,4-quinone] yielded an IC50 ([4]; no wash) of 40.7 nM, an IC50 ([4]; wash out) of 57.1 nM and an IC50 ([2]; ATP conc. 10 μM) of 40.7 nM. It also gave an inhibition at 0.1 µM [2, 6] of 58%, an inhibition at 1 µM [2, 7] of 93% and an inhibition at 1 µM [2, 8] of 96%. For the same compound, the melting point was 258 to 261 °C.

For `COCCOc1cc2ncnc(NC3=CC(=O)C(Oc4ccccc4C)=CC3=O)c2cc1OC` [Example 90, 2-{[6-methoxy-7-(2-methoxyethoxy)quinazolin-4-yl]amino}-5-(2-methylphenoxy)benzo-1,4-quinone], the IC50 (KDR [1]; IC50 (nM), inhibition of KDR kinase autophosphorylation in KDR15 cells, KDR15 cells, VEGF 50 ng/ml, phospho-KDR-Y996 immunoblot) was 236 nM and 147 nM, the inhibition at 0.2 µM (KDR [1]; read-out: % Inhibition of KDR kinase autophosphorylation in KDR15 cells, compound conc. 200 nM) was 29% and the IC50 ([4]; no wash) was 8.8 nM. The IC50 ([4]; wash out) was 18.5 nM, the IC50 ([2]; ATP conc. 10 μM) was 30 nM and 7.5 nM and 8.8 nM and the inhibition at 1 µM [2, 7] was 94%. For the same compound, the “% Inhibition” value [2, 8] was 97%, the inhibition at 1 µM [2, 8] was 96% and the melting point was 134 to 137 °C. The inhibition at 0.1 µM [5] was 22%, the inhibition at 1 µM [5] was 15% and the inhibition at 10 µM [5] was 95%.

In the case of `COCCOc1cc2ncnc(NC3=CC(=O)C(Oc4cccnc4)=CC3=O)c2cc1OC` [Example 91, 2-{[6-methoxy-7-(2-methoxyethoxy)quinazolin-4-yl]amino}-5-(pyridin-3-yloxy)benzo-1,4-quinone], the inhibition at 1 µM (KDR [1]) is reported as 55%, the IC50 ([4]; no wash) is reported as 18.9 nM and the IC50 ([4]; wash out) is reported as 18.9 nM. For the same compound, the IC50 ([2]; ATP conc. 10 μM) was 18.9 nM, the inhibition at 0.1 µM [2, 6] was 76% and the inhibition at 1 µM [2, 7] was 96%. For the same compound, the inhibition at 1 µM [2, 8] was 97%, the melting point was 189 to 190 °C and the inhibition at 0.1 µM [5] was 0%. For the same compound, the inhibition at 1 µM [5] was 15% and the inhibition at 10 µM [5] was 93%.

Work on `COc1cc2ncnc(NC3=CC(=O)C(Oc4ccccc4)=CC3=O)c2cc1OC` [Example 95, 2-[(6,7-dimethoxyquinazolin-4-yl)amino]-5-phenoxybenzo-1,4-quinone] yielded an IC50 ([4]; no wash) of 4.2 nM, an IC50 ([4]; wash out) of 6.5 nM and an IC50 ([2]; ATP conc. 10 μM) of 3.7 nM. For the same compound, the inhibition at 0.1 µM [2, 6] was 85%, the inhibition at 1 µM [2, 7] was 96% and the inhibition at 1 µM [2, 8] was 98%. The melting point was 228 to 234 °C.

Compound `COCCOc1cc2ncnc(NC3=CC(=O)C4(C)OC4C3=O)c2cc1OC` (stereo not shown) [Example 106, 4-{[6-methoxy-7-(2-methoxyethoxy)-4-quinazolinyl]amino}-1-methyl-7-oxabicyclo[4.1.0]hept-3-ene-2,5-dione] has an IC50 ([2]; ATP conc. 10 μM) of 339 nM, an inhibition at 1 µM [2, 7] of 69% and an inhibition at 1 µM [2, 8] of 70%. For the same compound, the “% Inhibition … in KDR15 cells” value (KDR [3]) was 78% and 100% and 59%.

`COCCOc1cc2ncnc(NC3=CC(=O)C4(Cc5ccccc5)OC4C3=O)c2cc1OC` (stereo not shown) [Example 108, 1-benzyl-4-{[6-methoxy-7-(2-methoxyethoxy)quinazolin-4-yl]amino}-7-oxabicyclo[4.1.0]hept-3-ene-2,5-dione] showed an inhibition at 1 µM (KDR [1]) of 68%, an IC50 ([4]; no wash) of 59.8 nM and an IC50 ([4]; wash out) of 82.6 nM. It also gave a melting point of 104 to 108 °C.
